Data set [1] can be described thus: Static PET image quantification of tissue uptake at 60 min (last frame of dynamic scan). It is filed as in vivo. The settings on record: female, athymic nude, mouse, iv, 3.7 MBq, total radioactivity, tail-vein injection ~3.7 MBq, static PET image at 1 h, mean ± SD, n = 4/group. The protocol:
The U87MG human glioblastoma tumor model, which has been documented to express high level of integrin αvβ3 [32], was selected for PET imaging. The U87MG cells obtained from ATCC (Manassas, VA) were cultured in DMEM medium supplemented with 10% fetal bovine serum (FBS), 100 IU/mL penicillin, and 100 µg/mL streptomycin (Invitrogen), and in a humidified atmosphere containing 5% CO2 at 37°C. The xenografted model was established by inoculation of 5×10^6 cells into the left shoulder of each female athymic nude mouse at 5–6 weeks of age (Harlan Laboratories). Tumor growth was monitored by caliper measurements of perpendicular axes of the tumor three times a week after the tumors are palpable. The tumor volume was determined as the formula: V = a×(b^2)/2, where a and b are the length and width of each tumor, respectively, in mm. The U87MG xenografted mice underwent PET imaging when the tumor volume reached about 300 mm^3 (about 3 weeks after inoculation). This study was approved by the NIH Clinical Center Animal Care and Use Committee (ACUC). Moreover, all mice were maintained in a specific pathogen-free facility in accordance with the requirements of the ACUC.
(§1) Dynamic PET data acquisition was performed using an Inveon microPET scanner (Siemens Medical Solutions). With the assistance of the Inveon system's positioning laser, U87MG tumor-bearing mouse was placed with its tumor located at the center of field of view (FOV), where the highest imaging sensitivity can be achieved. […] During the acquisition period, a thermostat-controlled thermal heater maintained the body temperature of mice. PET images were reconstructed with 2 iterations of 3-dimensional ordered-subsets expectation maximum (3D OSEM) with 14 subsets, followed by 18 iterations of maximum a posteriori (MAP) algorithm with a smoothing parameter of 0.1 (frame rates: 10×30 s, 5×60 s, 5×120 s and 10×240 s). No attenuation correction was performed in this study.
(§2) In the dynamic PET image analysis, regions of interest (ROIs) were measured with the Inveon Research Workplace (IRW) 3.0 software. ROI was determined by manually superimposing the ellipsoid volume of interest (VOI) to the target tissue on the last frame of the entire 60-min dynamic image sequence. Then a threshold of 30% maximum was set to screen the voxels with lower values in the entire VOI because of possible tumor heterogeneity and shape irregularity. The time–activity curves were derived by superimposing the same VOI on each time frame of the entire 60-min dynamic image sequence and the value of each time point represents the overall concentration of radioactivity in the tissue. The activity concentrations were determined by the mean pixel intensity within each VOI, which were converted to µCi/ml using a calibration constant. Assuming the tissue density of 1 g/ml, the ROI activity was converted to µCi/g and normalized as percent injected dose per gram (%ID/g). The tissue uptake quantification of static scan at 60 min was determined from the last frame of dynamic images. The arterial blood input function was estimated by drawing a VOI in the region of left ventricle on the reconstructed PET image at the 0.5 min time point (the second frame of dynamic PET image series). The region of muscle contralateral to the tumor was selected as the reference tissue.

A further data set relates to U87MG tumor-bearing mice. Kind of data set: Logan graphical analysis with image-derived input function of 60-min dynamic PET: volumes of distribution. It is filed as in vivo, mouse. The settings on record: mean ± SD, n = 4/group. The procedure: as §1, §2
Kinetic analysis of regional TACs was performed based on two-tissue (three-compartment) and one-tissue (two-compartment) model (Fig. 2). The three-compartment model consists of unmetabolized radiotracer in arterial blood plasma (Cp), free or non-specific binding tracer in interstitial and intracellular space (Ct), and tracer bound specifically to integrin (Cm). Both Ct and Cm occupy the same physical volume. The ROI(t) represents the sum of radioactivity from all compartments and includes the plasma volume fraction. Similarly, the two-compartment model describes RGD tracer kinetics using muscle as reference tissue and Ctref represents free (non-specific binding) tracer in the reference tissue (muscle) region. Generally speaking, kinetic parameters K1 [ml/g/min], k2 [1/min], k3 [1/min], k4 [1/min] represent the transport or binding rates of plasma perfusion into tissue, clearance from plasma, specific binding and dissociation, respectively.
Based on Logan plot shown in Eq. 1 [28], [33], the ratio between the integral of Cp(t) and the instantaneous value of ROI(t), and the ratio between the integral and the instantaneous value of ROI(t) become linearly related when the exchange between the target tissue and plasma reaches an equilibrium (t>t*). [drawing 1] (1) DV denotes the distribution volume and can be easily calculated from the linear regression. DV is a measure of the capacity of tissue to bind a particular tracer and can be regarded as the sum of specific (VS) and nonspecific distribution (VND). [drawing 2] (2) [drawing 3] (3) Total volume of distribution is defined in equation 4. [drawing 4] (4) K1, k2, k3, and k4 are calculated by linear fitting to 60-min dynamic PET data.

Where [2] appears, read: kidneys, U87MG tumor-bearing mice, read-out: Tissue uptake, Kidneys.
Setting [3] is: liver, U87MG tumor-bearing mice, read-out: Tissue uptake, Liver.
Where [4] appears, read: muscle, U87MG tumor-bearing mice, read-out: Tissue uptake, Muscle.
Setting [5] is: tumor (U87MG xenograft), U87MG xenograft, female athymic nude mice, read-out: Tissue uptake, Tumor.

Where two headings read alike, the source gives them in different places.

For orientation: tissue uptake means the share of the injected amount in each gram of the tissue. On to `N=C(N)NCCC[C@@H]1NC(=O)[C@H](CCCCNC(=O)CC[C@H](NC(=O)COCCOCCOCCNC(=S)Nc2ccc(C[C@H]3CN(CC(=O)O)CCN(CC(=O)O)CCN3CC(=O)O)cc2)C(=O)NCCCC[C@@H]2NC(=O)[C@@H](Cc3ccc(O)cc3)NC(=O)[C@H](CC(=O)O)NC(=O)CNC(=O)[C@H](CCCNC(=N)N)NC2=O)NC(=O)[C@@H](Cc2ccc(O)cc2)NC(=O)[C@H](CC(=O)O)NC(=O)CNC1=O` [[^18F]AlF-NOTA-PRGD2] [listing 1 of 2 here], for which the tissue uptake at 1 h in data set [1] (setting [2]) was determined as 4.67 ± 1.08 %ID/g; in data set [1] (setting [3]), 1.21 ± 0.54 %ID/g; in data set [1] (setting [4]), 0.53 ± 0.11 %ID/g.
With `N=C(N)NCCC[C@@H]1NC(=O)[C@H](CCCCNC(=O)CC[C@H](NC(=O)COCCOCCOCCNC(=S)Nc2ccc(C[C@H]3CN(CC(=O)O)CCN(CC(=O)O)CCN3CC(=O)O)cc2)C(=O)NCCCC[C@@H]2NC(=O)[C@@H](Cc3ccc(O)cc3)NC(=O)[C@H](CC(=O)O)NC(=O)CNC(=O)[C@H](CCCNC(=N)N)NC2=O)NC(=O)[C@@H](Cc2ccc(O)cc2)NC(=O)[C@H](CC(=O)O)NC(=O)CNC1=O` [[^18F]AlF-NOTA-PRGD2] [listing 2 of 2 here], in the data set on U87MG tumor-bearing mice, the “Volume of Distribution (VT), Kidneys” value is given as 5.24±0.24; the “Volume of Distribution (VT), Liver” value stood at 1.23±0.085; the “Volume of Distribution (VT), Muscle” value was 0.53±0.086; the “Volume of Distribution (VT), Tumor” value is listed as 2.65±0.34.
In the case of `CC(F)C(=O)NCCOCCOCCOCC(=O)N[C@@H](CCC(=O)NCCCC[C@@H]1NC(=O)[C@@H](Cc2ccc(O)cc2)NC(=O)[C@H](CC(=O)O)NC(=O)CNC(=O)[C@H](CCCNC(=N)N)NC1=O)C(=O)NCCCC[C@@H]1NC(=O)[C@@H](Cc2ccc(O)cc2)NC(=O)[C@H](CC(=O)O)NC(=O)CNC(=O)[C@H](CCCNC(=N)N)NC1=O` (some centres unmarked) [[^18F]FPPRGD2, reference compound], in data set [1] (setting [2]), the tissue uptake at 1 h came out at 2.78 ± 0.58 %ID/g. For the same molecule, the tissue uptake at 1 h in data set [1] (setting [3]) was 1.1 ± 0.18 %ID/g. Moreover, the tissue uptake at 1 h in data set [1] (setting [4]) was 0.36 ± 0.089 %ID/g. Moreover, the tissue uptake at 1 h in data set [1] (setting [5]) was determined as 2.91 ± 0.35 %ID/g. Further, in the data set with U87MG tumor-bearing mice, the “Volume of Distribution (VT), Kidneys” value is reported as 4.10±0.27; the “Volume of Distribution (VT), Liver” value turned out to be 0.97±0.14; the “Volume of Distribution (VT), Muscle” value turned out to be 0.44±0.071; the “Volume of Distribution (VT), Tumor” value came to 2.35±0.22.
For the molecule `N=C(N)NCCC[C@@H]1NC(=O)[C@H](CCCCNC(=O)CC[C@H](NC(=O)COCCOCCOCCNC(=S)Nc2ccc(C[C@H]3CN(CC(=O)O)CCN(CC(=O)O)CCN3CC(=O)O)cc2)C(=O)NCCCC[C@@H]2NC(=O)[C@@H](Cc3ccc(O)cc3)NC(=O)[C@H](CC(=O)O)NC(=O)CNC(=O)[C@H](CCCNC(=N)N)NC2=O)NC(=O)[C@@H](Cc2ccc(O)cc2)NC(=O)[C@H](CC(=O)O)NC(=O)CNC1=O` [[^68Ga]Ga-NOTA-PRGD2, metal not drawn], in data set [1] (setting [5]), the tissue uptake at 1 h was 2.42 ± 0.56 %ID/g.
Consider `N=C(N)NCCC[C@@H]1NC(=O)[C@H](CCCCNC(=O)CC[C@H](NC(=O)COCCOCCOCCNC(=S)Nc2ccc(C[C@H]3CN(CC(=O)O)CCN(CC(=O)O)CCN3CC(=O)O)cc2)C(=O)NCCCC[C@@H]2NC(=O)[C@@H](Cc3ccc(O)cc3)NC(=O)[C@H](CC(=O)O)NC(=O)CNC(=O)[C@H](CCCNC(=N)N)NC2=O)NC(=O)[C@@H](Cc2ccc(O)cc2)NC(=O)[C@H](CC(=O)O)NC(=O)CNC1=O` [[^68Ga]Ga-NOTA-PRGD2] [metal not drawn], for which, in the data set on U87MG tumor-bearing mice, the “Volume of Distribution (VT), Kidneys” value is reported as 3.37±0.56; the “Volume of Distribution (VT), Liver” value stood at 1.24±0.11; the “Volume of Distribution (VT), Muscle” value was determined as 0.57±0.064; the “Volume of Distribution (VT), Tumor” value was found to be 2.07±0.12.

For the origin of these results see PMC3356326 (PLoS ONE, 2012).
